From paper PMC10360056, “Chemical Evolution of Amphiphilic Xenopeptides for Potentiated Cas9 Ribonucleoprotein Delivery” (Journal of the American Chemical Society, 2023)

Tests used:
[1] = system: HeLa WT cells; assay: Endocytosis pathway study with inhibitors; format: cell-based; details: 1 mM amiloride 2 h, 75 nM RNP, 4 h, flow cytometry
Experimental: (§1) sgRNA amount in naked Cas9/sgRNA ribonucleoproteins (Cas9 RNPs) or Cas9 RNP nanocarriers were determined using a Quant-iTTM RiboGreen® RNA assay kit (Invitrogen, CA, USA). 50 μL of naked Cas9 RNPs or Cas9 RNP nanocarriers con-taining 250 ng Cas9 protein and 50 ng sgRNA were mixed with 50 μL of TE buffer and were added to the 96-well plate. The plate was incubated for 10 min. Afterwards, 100 μL of Ribogreen solution (diluted 1:100 in TE buffer) was added to each well.
(§2) The plate was incubated for another 5 min. Ribogreen fluorescence intensity was detected using a microplate reader (Spectra-fluor Plus, Tecan, Männedorf, Switzerland) with excitation and emission wavelength of 485 and 528 nm, respectively. […]
(§3) Cells were harvested and resuspended in 600 μL of FACS buffer (PBS buffer containing 10 % FBS). […] The DAPI signal and BFP fluorescence were detected with 405 nm excitation and 450 nm emission. The eGFP and ATTO488 fluorescence was assayed with 488 nm excitation and 530 nm emission. The ATTO647N fluorescence was assayed with 640 nm excitation and 670 nm emission. Ten thousand of isolated live cells were counted and evaluated. The data were analyzed using FlowJo 7.6.5 by FlowJo, LLC (Becton, Dickinson and Company, USA).
(§4) Cell viability was determined using an MTT assay. […]
(§5) Cellular uptake of Cas9 RNP nanocarriers was evaluated by flow cytometry and confocal laser scanning microscopy (CLSM). […]

[2] = system: HeLa WT cells; assay: Cellular uptake of Cas9 RNP nanocarriers (flow cytometry); format: cell-based; details: 75 nM RNP, 20 % ATTO488-sgRNA, 4 h, flow cytometry MFI
Experimental: as §1, §2, §3, §4, §5

[3] = Dilution stability of Cas9 RNP nanocarriers (DLS); format: physicochemical; details: prepared at 375 nM RNP, diluted with HBG, 0.1 nM RNP
Experimental: LogD7.4 determination of xenopeptides
Octanol-water partition coefficient D at pH 7.4 (logD7.4) was determined as previously reported with slight modification.5
Scheme S3 illustrates the logD7.4 determination procedures of all xenopeptides in this study. Briefly, 10 μL of 10 mg/mL xenopeptides in water were diluted with 90 μL HEPES buffer (20 mM, pH 7.4) in 1.5 mL reaction tubes. 100 μL n-octanol were then added. The tubes were shaken at 1400 rpm for 24 h. Afterwards, the tubes were centrifuged followed by storage at 4 °C for 1 h to separate n-octanol and water phases. 70 μL of each phase were injected for HPLC analysis. The extinction at 280 nm was monitored and the peak area (A) of the xenopeptides was calculated. LogD7.4 was calculated as log(Aoctanol / Awater).
All experiments were performed in triplicate.
Preparation of Cas9 RNP and Cas9 RNP/ssDNA nanocarriers […]
The hydrodynamic size, PDI and zeta potential of Cas9 RNP nanocarriers were measured by DLS using a Zetasizer Nano ZS (Malvern Instruments, UK). […] The hydrodynamic size of Cas9 RNP nanocarriers containing 1.25 μg Cas9 protein and 0.25 μg sgRNA (Cas9/sgRNA, 1:1 molar ratio) in 100 μL HBG was measured.
Afterwards, 700 μL HEPES buffer (20 mM, pH 7.4) were added to each sample and the soluti on was mixed for the zeta potential measurement. […] The size and zeta potential of diluted samples were measured as described above. […]

## CCCCC/C=C\C/C=C\CCCCCCCC(=O)NCCCC[C@H](NC(=O)CCCCCCC/C=C\C/C=C\CCCCC)C(=O)NCCCC[C@H](NC(=O)c1cc2ccccc2cc1C(=O)NCCNCCNCCNCCNC(=O)[C@H](Cc1ccc(O)cc1)NC(=O)[C@H](Cc1ccc(O)cc1)NC(=O)[C@H](Cc1ccc(O)cc1)NC(=O)[C@@H](N)CCCCN=[N+]=[N-])C(=O)NCCNCCNCCNCCNC(=O)c1cc2ccccc2cc1C(=O)N[C@@H](Cc1ccc(O)cc1)C(=O)N[C@@H](Cc1ccc(O)cc1)C(=O)N[C@@H](Cc1ccc(O)cc1)C(=O)O [Ntp1-LinA]
[1]
  Cas9 RNP uptake after pretreatment with amiloride (macropinocytosis): blocked
[2]
  enhanced sgRNA uptake compared to the Stp-based analogue: 7.3 fold
[3]
  nanocarrier size detectability upon dilution: still detectable
